According to US20170152239A1, “BENZAMIDE AND HETEROBENZAMIDE COMPOUNDS” (PFIZER INC., priority 2012, published 2017):

Assays:
Assay type in all cases: biochemical
[1] = molecular target: WT EZH2 (EZH2 4 protein complex: EZH2, EED, SUZ12, RbAp48) (Homo sapiens, UniProt O75530+Q09028+Q15022+Q15910); assay: WT EZH2 nucleosome assay; conditions: nucleosome assay, 5 nM EZH2 4-protein complex, 1.5 μM SAM; read-out: WT EZH2 IC50
Method in brief: (§1)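 IC50 values come from 4-parameter fits of 11-point dose responses, with % effect also given at 20 μM. Reactions held HeLa oligonucleosomes (25 μg/mL), rH1 (50 nM), 1.5 μM tritiated SAM and 5 nM enzyme complex at pH 8.5 Tris/DTT/Tween; stopped by TCA after 60 min, filtered and scintillation-counted.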

[2] = molecular target: WT EZH2 (EZH2 4 protein complex: EZH2, EED, SUZ12, RbAp48) (Homo sapiens, UniProt Q15910); assay: WT EZH2 nucleosome assay; conditions: compound at 20 μM; nucleosome assay
Sequence of WT EZH2 (EZH2 4 protein complex: EZH2, EED, SUZ12, RbAp48) (Homo sapiens, UniProt Q15910) (Q15910 whole entry): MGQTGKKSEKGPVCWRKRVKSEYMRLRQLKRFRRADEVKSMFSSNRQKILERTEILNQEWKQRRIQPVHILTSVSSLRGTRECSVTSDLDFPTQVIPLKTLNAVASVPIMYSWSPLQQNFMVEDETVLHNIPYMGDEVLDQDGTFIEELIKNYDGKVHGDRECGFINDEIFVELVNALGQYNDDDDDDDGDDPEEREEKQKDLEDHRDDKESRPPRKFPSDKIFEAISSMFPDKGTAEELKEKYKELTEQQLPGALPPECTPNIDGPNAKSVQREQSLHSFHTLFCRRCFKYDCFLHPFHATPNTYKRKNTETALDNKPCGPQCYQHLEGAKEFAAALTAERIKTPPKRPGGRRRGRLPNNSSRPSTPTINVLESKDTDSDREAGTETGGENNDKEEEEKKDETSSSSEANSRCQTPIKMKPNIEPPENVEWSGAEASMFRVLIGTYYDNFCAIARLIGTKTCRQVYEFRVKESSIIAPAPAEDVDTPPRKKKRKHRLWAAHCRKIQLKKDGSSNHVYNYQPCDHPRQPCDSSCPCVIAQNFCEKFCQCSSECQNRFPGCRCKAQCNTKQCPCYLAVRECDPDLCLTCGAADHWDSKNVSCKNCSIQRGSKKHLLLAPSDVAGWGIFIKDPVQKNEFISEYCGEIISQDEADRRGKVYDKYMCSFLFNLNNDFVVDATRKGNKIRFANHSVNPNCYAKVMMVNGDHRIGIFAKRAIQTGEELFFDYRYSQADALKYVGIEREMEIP
Sequence of WT EZH2 (EZH2 4 protein complex: EZH2, EED, SUZ12, RbAp48) (Homo sapiens, UniProt Q15910) (O75530 whole entry partner): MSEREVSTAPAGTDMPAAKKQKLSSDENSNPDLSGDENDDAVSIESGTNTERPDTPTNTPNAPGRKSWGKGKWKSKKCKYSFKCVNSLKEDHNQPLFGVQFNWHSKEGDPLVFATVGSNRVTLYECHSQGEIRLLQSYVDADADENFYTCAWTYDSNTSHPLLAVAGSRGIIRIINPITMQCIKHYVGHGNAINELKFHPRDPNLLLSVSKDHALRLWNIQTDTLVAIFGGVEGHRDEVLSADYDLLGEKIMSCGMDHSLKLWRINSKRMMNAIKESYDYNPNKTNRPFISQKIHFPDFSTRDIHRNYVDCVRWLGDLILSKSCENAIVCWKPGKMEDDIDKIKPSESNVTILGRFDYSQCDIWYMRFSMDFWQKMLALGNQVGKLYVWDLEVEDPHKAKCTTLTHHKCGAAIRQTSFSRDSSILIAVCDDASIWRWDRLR
Sequence of WT EZH2 (EZH2 4 protein complex: EZH2, EED, SUZ12, RbAp48) (Homo sapiens, UniProt Q15910) (Q15022 whole entry partner): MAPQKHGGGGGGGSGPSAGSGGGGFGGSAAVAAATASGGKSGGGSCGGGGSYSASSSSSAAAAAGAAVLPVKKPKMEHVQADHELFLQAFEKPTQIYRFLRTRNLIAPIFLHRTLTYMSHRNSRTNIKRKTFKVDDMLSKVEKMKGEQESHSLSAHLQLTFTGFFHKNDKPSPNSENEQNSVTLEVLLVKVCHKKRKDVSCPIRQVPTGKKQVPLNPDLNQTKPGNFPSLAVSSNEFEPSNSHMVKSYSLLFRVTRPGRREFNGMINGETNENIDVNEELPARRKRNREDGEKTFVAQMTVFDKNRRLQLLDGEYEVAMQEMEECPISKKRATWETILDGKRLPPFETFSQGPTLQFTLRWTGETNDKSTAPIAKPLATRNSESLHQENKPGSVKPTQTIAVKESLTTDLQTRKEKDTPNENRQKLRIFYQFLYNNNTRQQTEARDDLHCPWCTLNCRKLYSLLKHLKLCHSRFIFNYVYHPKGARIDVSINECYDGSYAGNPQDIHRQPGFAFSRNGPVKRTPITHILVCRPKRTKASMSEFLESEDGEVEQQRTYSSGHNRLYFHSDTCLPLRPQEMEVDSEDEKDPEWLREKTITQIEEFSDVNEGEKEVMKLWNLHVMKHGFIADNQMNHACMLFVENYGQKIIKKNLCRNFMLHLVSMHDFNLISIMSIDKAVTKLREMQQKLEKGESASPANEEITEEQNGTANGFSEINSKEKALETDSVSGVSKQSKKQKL
Sequence of WT EZH2 (EZH2 4 protein complex: EZH2, EED, SUZ12, RbAp48) (Homo sapiens, UniProt Q15910) (Q09028 whole entry partner): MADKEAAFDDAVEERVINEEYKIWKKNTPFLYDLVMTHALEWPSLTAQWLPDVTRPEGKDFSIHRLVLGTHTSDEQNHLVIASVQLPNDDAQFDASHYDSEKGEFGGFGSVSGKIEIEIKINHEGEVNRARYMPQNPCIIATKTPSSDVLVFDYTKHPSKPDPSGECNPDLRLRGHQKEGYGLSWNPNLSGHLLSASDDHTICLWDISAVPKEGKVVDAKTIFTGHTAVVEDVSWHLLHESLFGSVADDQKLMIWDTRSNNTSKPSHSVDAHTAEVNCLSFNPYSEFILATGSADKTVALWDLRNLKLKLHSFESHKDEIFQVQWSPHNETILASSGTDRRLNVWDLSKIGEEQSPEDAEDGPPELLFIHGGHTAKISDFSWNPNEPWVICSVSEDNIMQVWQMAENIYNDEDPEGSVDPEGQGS
Method in brief: as §1

[3] = molecular target: EZH2PRC2 mutant Y641N (Homo sapiens, UniProt Q15910, Y641N); assay: EZH2PRC2 mutant Y641N nucleosome assay; conditions: read-out: EZH2PCR2 Mutant Y641N IC50
Sequence of EZH2PRC2 mutant Y641N (Q15910 whole entry Y641N): as the sequence (Q15910 whole entry) above, with Y641N counted along it
Sequence of EZH2PRC2 mutant Y641N (O75530 whole entry partner): as the sequence (O75530 whole entry partner) above
Sequence of EZH2PRC2 mutant Y641N (Q15022 whole entry partner): as the sequence (Q15022 whole entry partner) above
Sequence of EZH2PRC2 mutant Y641N (Q09028 whole entry partner): as the sequence (Q09028 whole entry partner) above
Description: Nucleosome Assay Protocol:
A. Compound preparation • 1. Prepare 10 mM stock solutions in 100% DMSO from solid material • 2. Serial dilute 10 mM compound stocks either 2 or 3-fold in 100% DMSO to generate compounds for 11 point dose response
B. Reagent preparation • 1. Prepare 1× assay buffer containing 100 mM Tris pH 8.5, 4 mM DTT and 0.01% Tween-20 • 2. Dilute purified HeLA oligonucleosomes and recombinant histone H1 (New England Biolabs) in assay buffer to 1.67×. • 3. Dilute EZH2 4 protein complex (EZH2, EED, SUZ12, RbAp48) to 3.5× in assay buffer • 4. Prepare 10×^3H SAM solution in assay buffer using 0.94 μCi/well of radioactive SAM (Perkin Elmer) and sufficient non-labeled SAM (Sigma) for 1.5 μM final concentration. • 5. Dilute TCA to 20% in DI water
C. Enzyme reaction • 1. Final reaction conditions are 5 nM EZH2 4-protein complex, 1.5 μM SAM, 25 μg/mL oligonucleosomes, 50 nM rH1 in a 50 μl reaction volume. • 2. Add 1 μl of diluted compound to the assay plate (96-well V-bottom polypropylene plates) or 1 μl of DMSO for control wells. • 3. Add 30 μl of nucleosomes to the assay plate • 4. Add 14 μl of EZH2 4 protein complex to the assay plate • 5. Add 5 μl of ^3H SAM to start the reaction. • 6. Stop the reaction after 60 minutes with the addition of 100 μl of 20% TCA • 7. Transfer 150 μl of quenched reaction into a prepared filterplate (Millipore #MSIPN4B10) • 8. Apply vacuum to the filterplate to filter the reaction mix through the membrane. • 9. Wash the filterplate with 8×200 μl of PBS, blot dry and dry in an oven for 30 minutes • 10. Add 50 μl of microscint-20 scintillation fluid (Perkin Elmer) to each well, wait 30 minutes and count on a liquid scintillation counter.
D. Data analysis • 1. IC50 values were determined by fitting the data to a 4-parameter IC50 equation using proprietary curve fitting software.
Wild type (WT) EZH2% Effect at 20 μM and IC50 values (μM) generated in WT EZH2 or EZH2PRC2 mutant Y641N nucleosome assays are provided in Table 3 below. A blank entry in the table indicates the data was not generated in that assay.

Sequence of WT EZH2 (EZH2 4 protein complex: EZH2, EED, SUZ12, RbAp48) (Homo sapiens, UniProt O75530+Q09028+Q15022+Q15910) (Q15910 whole entry): as the sequence (Q15910 whole entry) above
Sequence of WT EZH2 (EZH2 4 protein complex: EZH2, EED, SUZ12, RbAp48) (Homo sapiens, UniProt O75530+Q09028+Q15022+Q15910) (O75530 whole entry partner): as the sequence (O75530 whole entry partner) above
Sequence of WT EZH2 (EZH2 4 protein complex: EZH2, EED, SUZ12, RbAp48) (Homo sapiens, UniProt O75530+Q09028+Q15022+Q15910) (Q15022 whole entry partner): as the sequence (Q15022 whole entry partner) above
Sequence of WT EZH2 (EZH2 4 protein complex: EZH2, EED, SUZ12, RbAp48) (Homo sapiens, UniProt O75530+Q09028+Q15022+Q15910) (Q09028 whole entry partner): as the sequence (Q09028 whole entry partner) above

SMILES | IC50 [1] | % Effect in WT EZH2 at 20 μM [2] | IC50 [3]
Cc1cc(C)c(CNC(=O)c2cccc(OC(C)C)c2C)c(=O)[nH]1 [Example 32, N-((4,6-dimethyl-2-oxo-1,2-dihydropyridin-3-yl)methyl)-3-isopropoxy-2-methylbenzamide] | 0.87 µM | 83.654% | 11.2 µM
COc1cccc(C(=O)NCc2c(C)cc(C)[nH]c2=O)c1Cl [Example 79, 2-chloro-N-[(4,6-dimethyl-2-oxo-1,2-dihydropyridin-3-yl)methyl]-3-methoxybenza-mide] | 7.52 µM | 71.325% | 43.1 µM
CCCc1c(OC)cccc1C(=O)NCc1c(C)cc(C)[nH]c1=O [Example 128, N-[(4,6-dimethyl-2-oxo-1,2-dihydropyridin-3-yl)methyl]-3-methoxy-2-propylbenzamide] | 54.3 µM | 38.993% | 
Cc1cc(C)c(CNC(=O)c2c(Cl)ccc(OCCN3CCCC3)c2Cl)c(=O)[nH]1 [Example 129, 2,6-dichloro-N-[(4,6-dimethyl-2-oxo-1,2-dihydropyridin-3-yl)methyl]-3-(2-pyrrolidin-1-ylethoxy)benza-mide] | 54.3 µM | 32.145% | 

Other lines, results leading:

IC50 [1] | % Effect in WT EZH2 at 20 μM [2] | IC50 [3] | SMILES
141 µM | 62.306% | > 200 µM | COc1cccc(C(=O)NCc2c(C)cc(C)[nH]c2=O)c1C#N [Example 135, 2-cyano-N-[(4,6-dimethyl-2-oxo-1,2-dihydropyridin-3-yl)methyl]-3-methoxybenz-amide]
167 µM | 20.924% |  | COc1cccc(C(=O)NCc2c(C)cc(C)[nH]c2=O)c1F [Example 137, N-[(4,6-dimethyl-2-oxo-1,2-dihydropyridin-3-yl)methyl]-2-fluoro-3-methoxybenz-amide]
172 µM | 44.736% |  | Cc1cc(C)c(CNC(=O)c2ccnc(OC(C)C)c2F)c(=O)[nH]1 [Example 138, N-[(4,6-dimethyl-2-oxo-1,2-dihydropyridin-3-yl)methyl]-3-fluoro-2-isopropoxyiso-nicotinamide]
